We go through four molecules from ChEMBL document CHEMBL4715829, “Heterodimeric Rifampicin-Tobramycin conjugates break intrinsic resistance of Pseudomonas aeruginosa to doxycycline and chloramphenicol in vitro and in a Galleria mellonella in vivo model” (Eur J Med Chem, 2019).

Bounds are passed on as bounds.

Data set [1] deals with Pseudomonas aeruginosa. Nature of the data set: Antibacterial activity against Pseudomonas aeruginosa 260-97103 assessed as reduction in bacterial growth by measuring doxycycline MIC at 2 ug/ml incubated for 18 hrs in presence of doxycycline by broth microdilution assay (reference value: 16 ug/ml). The conditions noted are these: dose 2 µg/ml. Type of data set: functional. Background: Dilution methods test growth across graded concentrations, often in twofold steps.

Data set [2] deals with Pseudomonas aeruginosa. Kind of data set: Antibacterial activity against Pseudomonas aeruginosa 91433 assessed as fractional inhibitory concentration incubated for 18 hrs in presence of minocycline by broth microdilution assay. Type of data set: functional.
Data set [3] in a line: Toxicity in Galleria mellonella larvae assessed as larval survival at 100 mg/kg measured after 96 hrs. Format: organism-based. The following applies: in vivo.
In data set [4] the test system is Pseudomonas aeruginosa. Kind of data set: Antibacterial activity against Pseudomonas aeruginosa 100036 assessed as potentiation of chloramphenicol-induced antibacterial activity by measuring chloramphenicol MIC at 9.8 uM incubated for 18 hrs in presence of chloramphenicol by broth microdilution assay (reference value: 1024 ug/ml). Format: functional.
The subject of data set [5] is Pseudomonas aeruginosa. Kind of data set: Antibacterial activity against Pseudomonas aeruginosa 114228 assessed as fractional inhibitory concentration incubated for 18 hrs in presence of rifampicin by broth microdilution assay. Format: functional.
Data set [6] deals with Pseudomonas aeruginosa. Kind of data set: Antibacterial activity against Pseudomonas aeruginosa 259-96918 assessed as fractional inhibitory concentration incubated for 18 hrs in presence of tigecycline by broth microdilution assay. Format: functional.
Data set [7] deals with Pseudomonas aeruginosa. Nature of the data set: Potentiation of chloramphenicol-induced antibacterial activity against Pseudomonas aeruginosa 260-97103 assessed as fold change in chloramphenicol MIC at 9.8 uM incubated for 18 hrs in presence of chloramphenicol by broth microdilution assay relative to control. Type of data set: functional.
The test system of data set [8] is Pseudomonas aeruginosa. Nature of the data set: Antibacterial activity against Pseudomonas aeruginosa 91433 assessed as fractional inhibitory concentration index incubated for 18 hrs in presence of tigecycline by broth microdilution assay. Type of data set: functional.
The test system of data set [9] is Pseudomonas aeruginosa. Kind of data set: Antibacterial activity against Pseudomonas aeruginosa 260-97103 infected in Galleria mellonella larvae assessed as survival of larvae at 75 mg/kg treated at 3 hrs post-infection in presence of doxycycline and measured after 24 hrs relative to control. Format: functional.
Data set [10] deals with Pseudomonas aeruginosa. Nature of the data set: Potentiation of chloramphenicol-induced antibacterial activity against Pseudomonas aeruginosa 259-96918 assessed as fold change in chloramphenicol MIC at 9.8 uM incubated for 18 hrs in presence of chloramphenicol by broth microdilution assay relative to control. Type of data set: functional.
In data set [11] the test system is Pseudomonas aeruginosa. Nature of the data set: Antibacterial activity against Pseudomonas aeruginosa 91433 assessed as fractional inhibitory concentration index incubated for 18 hrs in presence of minocycline by broth microdilution assay. Format: functional.
For data set [12], the system named is Pseudomonas aeruginosa. Kind of data set: Potentiation of doxycycline-induced antibacterial activity against Pseudomonas aeruginosa 100036 assessed as fold change in doxycycline MIC at 9.8 uM incubated for 18 hrs in presence of doxycycline by broth microdilution assay relative to control. Format: functional.
Data set [13] has as its system Pseudomonas aeruginosa. Kind of data set: Potentiation of doxycycycline-induced bactericidal activity against Pseudomonas aeruginosa PAO1 assessed as bacterial viability at 9.8 microM incubated for 9 hrs in LB medium in presence of doxycycline followed by plating on agar plate and measured after 20 hrs by time-kill assay. Format: functional. The following applies: time 29 hrs.

In data set [14] the test system is Pseudomonas aeruginosa. Nature of the data set: Antibacterial activity against Pseudomonas aeruginosa 262-101856 assessed as fractional inhibitory concentration index incubated for 18 hrs in presence of rifampicin by broth microdilution assay. Type of data set: functional.
Data set [15] concerns Pseudomonas aeruginosa. Kind of data set: Antibacterial activity against Pseudomonas aeruginosa 101885 assessed as fractional inhibitory concentration index incubated for 18 hrs in presence of minocycline by broth microdilution assay. Type of data set: functional.
In data set [16] the test system is Pseudomonas aeruginosa. Nature of the data set: Antibacterial activity against Pseudomonas aeruginosa 114228 assessed as fractional inhibitory concentration incubated for 18 hrs in presence of minocycline by broth microdilution assay. Format: functional.
A further data set has as its system HEK293. Nature of the data set: Cytotoxicity against human HEK293 cells assessed as cell viability at 50 uM incubated for 48 hrs in presence of chloramphenicol by prestoblue assay. Format: cell-based. The conditions noted are these: hek293, 48 h.
The test system of data set [17] is Pseudomonas aeruginosa. Nature of the data set: Antibacterial activity against Pseudomonas aeruginosa 114228 assessed as potentiation of doxycycline-induced antibacterial activity by measuring doxycycline MIC at 9.8 uM incubated for 18 hrs in presence of doxycycline by broth microdilution assay (reference value: 32 ug/ml). Type of data set: functional.
Data set [18] deals with Pseudomonas aeruginosa. Nature of the data set: Antibacterial activity against Pseudomonas aeruginosa 91433 assessed as potentiation of doxycycline-induced antibacterial activity by measuring doxycycline MIC at 9.8 uM incubated for 18 hrs in presence of doxycycline by broth microdilution assay (reference value: 32 ug/ml). Format: functional.
Data set [19] concerns Pseudomonas aeruginosa. Kind of data set: Potentiation of chloramphenicol-induced antibacterial activity against wild type Pseudomonas aeruginosa PAO1 assessed as fold change in chloramphenicol MIC at <=9.8 uM incubated for 18 hrs in presence of chloramphenicol by broth microdilution assay. Format: functional. The following applies: dose microM <=9.8.
The test system of data set [20] is Pseudomonas aeruginosa. Kind of data set: Potentiation of chloramphenicol-induced antibacterial activity against Pseudomonas aeruginosa 260-97103 assessed as fold change in chloramphenicol MIC at 7.6 uM incubated for 18 hrs in presence of chloramphenicol by broth microdilution assay relative to control. Type of data set: functional.
The subject of data set [21] is Pseudomonas aeruginosa. Kind of data set: Potentiation of doxycycline-induced antibacterial activity against Pseudomonas aeruginosa 262-101856 assessed as fold change in doxycycline MIC at 7.6 uM incubated for 18 hrs in presence of doxycycline by broth microdilution assay relative to control. Format: functional.
The subject of data set [22] is Pseudomonas aeruginosa. Kind of data set: Potentiation of doxycycline-induced antibacterial activity against Pseudomonas aeruginosa 101243 assessed as fold change in doxycycline MIC at 7.6 uM incubated for 18 hrs in presence of doxycycline by broth microdilution assay relative to control. Type of data set: functional.
For data set [23], the system named is Pseudomonas aeruginosa. Kind of data set: Antibacterial activity against Pseudomonas aeruginosa 101243 assessed as potentiation of chloramphenicol-induced antibacterial activity by measuring chloramphenicol MIC at 7.6 uM incubated for 18 hrs in presence of chloramphenicol by broth microdilution assay (reference value: 1 ug/ml). Format: functional.
In data set [24] the test system is Pseudomonas aeruginosa. Kind of data set: Antibacterial activity against Pseudomonas aeruginosa 91433 assessed as potentiation of chloramphenicol-induced antibacterial activity by measuring chloramphenicol MIC at 7.6 uM incubated for 18 hrs in presence of chloramphenicol by broth microdilution assay (reference value: 8 ug/ml). Type of data set: functional.
Data set [25] has as its system Pseudomonas aeruginosa. Nature of the data set: Antibacterial activity against Pseudomonas aeruginosa 114228 assessed as potentiation of chloramphenicol-induced antibacterial activity by measuring chloramphenicol MIC at 7.6 uM incubated for 18 hrs in presence of chloramphenicol by broth microdilution assay (reference value: 64 ug/ml). Type of data set: functional.

Data set [26] deals with Pseudomonas aeruginosa. Nature of the data set: Antibacterial activity against Pseudomonas aeruginosa 100036 assessed as reduction in bacterial growth by measuring doxycycline MIC at 8 ug/ml incubated for 18 hrs in presence of doxycycline by broth microdilution assay (reference value: 64 ug/ml). Format: functional. The following applies: dose 8 µg/ml.
For data set [27], the system named is Pseudomonas aeruginosa. Kind of data set: Antibacterial activity against Pseudomonas aeruginosa 91433 assessed as fractional inhibitory concentration incubated for 18 hrs in presence of doxycycline by broth microdilution assay. Type of data set: functional.
In data set [28] the test system is Pseudomonas aeruginosa. Kind of data set: Antibacterial activity against Pseudomonas aeruginosa 260-97103 assessed as fractional inhibitory concentration incubated for 18 hrs in presence of doxycycline by broth microdilution assay. Format: functional.
In data set [29] the test system is Pseudomonas aeruginosa. Nature of the data set: Antibacterial activity against Pseudomonas aeruginosa 262-101856 assessed as reduction in bacterial growth by measuring doxycycline MIC at 8 ug/ml incubated for 18 hrs in presence of doxycycline by broth microdilution assay (reference value: 1024 ug/ml). Type of data set: functional. The following applies: dose 8 µg/ml.

In data set [30] the test system is Pseudomonas aeruginosa. Nature of the data set: Antibacterial activity against Pseudomonas aeruginosa 260-97103 assessed as reduction in bacterial growth by measuring doxycycline MIC at 8 ug/ml incubated for 18 hrs in presence of doxycycline by broth microdilution assay (reference value: 16 ug/ml). Format: functional. The conditions noted are these: dose 8 µg/ml.

One may read the MIC as the lowest concentration found to suppress growth.

`CO[C@H]1/C=C/O[C@@]2(C)Oc3c(C)c(O)c4c(O)c(c(/C=N/N5CCN(C)CC5)c(O)c4c3C2=O)NC(=O)/C(C)=C\C=C\[C@H](C)[C@H](O)[C@@H](C)[C@@H](O)[C@@H](C)[C@H](OC(C)=O)[C@@H]1C` [RIFAMPIN]: the MIC in the data set with Pseudomonas aeruginosa [1] stood at 16 µg/mL.
As to `CO[C@H]1/C=C/O[C@@]2(C)Oc3c(C)c(O)c4c(O)c(c(/C=N/N5CCN(Cc6cn(CCCCCCO[C@@H]7[C@@H](O[C@H]8O[C@H](CO)[C@@H](O)[C@H](N)[C@H]8O)[C@H](N)C[C@H](N)[C@H]7O[C@H]7O[C@H](CN)[C@@H](O)C[C@H]7N)nn6)CC5)c(O)c4c3C2=O)NC(=O)/C(C)=C\C=C\[C@H](C)[C@H](O)[C@@H](C)[C@@H](O)[C@@H](C)[C@H](OC(C)=O)[C@@H]1C.Cl.Cl.Cl.Cl.Cl`, the FIC in the data set on Pseudomonas aeruginosa [2] is given as less than 0.125; in the data set on Pseudomonas aeruginosa [5], less than 0.031; in the data set on Pseudomonas aeruginosa [6], less than 0.125; in the data set with Pseudomonas aeruginosa [16] it was less than 0.031. Moreover, the survival at 96 h in [3] was determined as 100%. For the same molecule, the MIC with Pseudomonas aeruginosa [4] came out at 4 µg/mL; with Pseudomonas aeruginosa [17] it was 1 µg/mL; in the data set with Pseudomonas aeruginosa [18] it was 4 µg/mL. For the same molecule, the “fold change (FC)” value with Pseudomonas aeruginosa [7] is listed as 4; with Pseudomonas aeruginosa [10], 4; in the data set with Pseudomonas aeruginosa [12], 4; with Pseudomonas aeruginosa [19], 32. Moreover, the “fractional inhibitory concentration index (FICI)” value in the data set with Pseudomonas aeruginosa [8] is 1.13; in the data set on Pseudomonas aeruginosa [11], less than 0.25; in the data set with Pseudomonas aeruginosa [14] it was less than 0.51; with Pseudomonas aeruginosa [15], 0.13. Moreover, the survival at 75 mg/kg with Pseudomonas aeruginosa [9] was 55%. Besides, the Activity in the data set on Pseudomonas aeruginosa [13] was less than 10 CFU/ml; in the data set with HEK293, “Non-Toxic”.
For the molecule `CO[C@H]1/C=C/O[C@@]2(C)Oc3c(C)c(O)c4c(O)c(c(/C=N/N5CCN(Cc6cn(CCCCCCCCCCCCO[C@@H]7[C@@H](O[C@H]8O[C@H](CO)[C@@H](O)[C@H](N)[C@H]8O)[C@H](N)C[C@H](N)[C@H]7O[C@H]7O[C@H](CN)[C@@H](O)C[C@H]7N)nn6)CC5)c(O)c4c3C2=O)NC(=O)/C(C)=C\C=C\[C@H](C)[C@H](O)[C@@H](C)[C@@H](O)[C@@H](C)[C@H](OC(C)=O)[C@@H]1C.O=C(O)C(F)(F)F.O=C(O)C(F)(F)F.O=C(O)C(F)(F)F.O=C(O)C(F)(F)F.O=C(O)C(F)(F)F`, the “fold change (FC)” value with Pseudomonas aeruginosa [20], in the data set on Pseudomonas aeruginosa [21] and with Pseudomonas aeruginosa [22] was 4 in each case. Further, the results for the MIC in the data set with Pseudomonas aeruginosa [23], in the data set with Pseudomonas aeruginosa [24] and in the data set with Pseudomonas aeruginosa [25] were 0.0625 µg/mL, 1 µg/mL and 8 µg/mL, respectively.
As to `NC[C@H]1O[C@H](O[C@H]2[C@H](O)[C@@H](O[C@H]3O[C@H](CO)[C@@H](O)[C@H](N)[C@H]3O)[C@H](N)C[C@@H]2N)[C@H](N)C[C@@H]1O` [TOBRAMYCIN], the values for the MIC with Pseudomonas aeruginosa [26], in the data set on Pseudomonas aeruginosa [29] and in the data set on Pseudomonas aeruginosa [30] were 64 µg/mL, 1020 µg/mL and 16 µg/mL, respectively. Further, the FIC in the data set with Pseudomonas aeruginosa [27] and with Pseudomonas aeruginosa [28] was 0.5 each time.
